Measurements as given in patent publication US8173654B2, “Triazolopyridazine compounds” (Janssen Pharmaceutica N.V., priority 2005, dated 2012).

Target: c-Met (Homo sapiens, UniProt P08581)
Test: Delfia autophosphorylation kinase assay on the c-Met
Type: biochemical
Set-up: The purified His6 tagged cytoplasmic domain of c-Met was diluted to a concentration of 500 ng/ml; host or cells: Sf9 insect cells (baculovirus, pFastBacHTa)
Conditions: His6 tagged cytoplasmic domain of c-Met, 1 μM ATP; read-out: cMet Delfia autophos IC-50
Summary of the method: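 Time-resolved fluorescence tracked autophosphorylation of the His6-tagged c-Met cytoplasmic domain, dispensed at 500 ng/ml onto nickel-chelate plates. Reaction buffer held 1 μM ATP, 10 mM MgCl2, vanadate and DTT at pH 8.0, for 1 h at room temperature.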

c-Met, sequence (P08581 956-1390 limits assumed): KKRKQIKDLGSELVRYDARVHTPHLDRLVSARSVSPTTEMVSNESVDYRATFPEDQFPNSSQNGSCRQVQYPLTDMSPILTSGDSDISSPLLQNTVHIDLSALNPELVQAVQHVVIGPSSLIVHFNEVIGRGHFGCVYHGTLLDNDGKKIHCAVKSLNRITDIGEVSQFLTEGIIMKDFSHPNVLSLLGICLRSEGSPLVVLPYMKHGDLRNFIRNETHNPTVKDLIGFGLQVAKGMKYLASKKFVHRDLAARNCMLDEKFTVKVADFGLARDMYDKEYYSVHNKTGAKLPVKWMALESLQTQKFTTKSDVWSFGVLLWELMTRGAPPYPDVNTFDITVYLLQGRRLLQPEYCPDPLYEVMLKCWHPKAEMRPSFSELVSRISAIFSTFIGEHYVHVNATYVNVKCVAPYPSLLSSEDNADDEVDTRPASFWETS

## Cn1cc(-c2ccc3nnc(C(F)(F)c4ccc5ncccc5c4)n3n2)cn1 [Example 61, 6-{Difluoro-[6-(1-methyl-1H-pyrazol-4-yl)-[1,2,4]triazolo[4,3-b]pyridazin-3-yl]-methyl}-quinoline]
  IC50: 1 nM
